Results: PubChem BioAssay (NCI)
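These data come from cells grown in 96-well plates and exposed to compound for 48 hours at five concentrations. GI50 marks 50% less growth. TGI: concentration producing complete growth inhibition.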

Assays:
Test in all cases: DTP human tumour cell line panel, 48 h
A549 NSCLC = system: A549 NSCLC
HL-60(TB) leukemia = system: HL-60(TB) leukemia
HT29 colon = system: HT29 colon
KM12 colon = system: KM12 colon
SK-MEL-28 melanoma = system: SK-MEL-28 melanoma
SN12C renal = system: SN12C renal
SNB-19 CNS = system: SNB-19 CNS
SR leukemia = system: SR leukemia
UO-31 renal = system: UO-31 renal
SNB-75 CNS = system: SNB-75 CNS

SMILES | TGI (A549 NSCLC) [µM] | TGI (HL-60(TB) leukemia) [µM] | TGI (HT29 colon) [µM] | TGI (KM12 colon) [µM] | TGI (SK-MEL-28 melanoma) [µM] | TGI (SN12C renal) [µM] | TGI (SNB-19 CNS) [µM] | TGI (SR leukemia) [µM] | TGI (UO-31 renal) [µM] | GI50 (A549 NSCLC) [µM] | GI50 (HT29 colon) | GI50 (KM12 colon) | GI50 (SK-MEL-28 melanoma) | GI50 (SN12C renal) | GI50 (UO-31 renal) | TGI (SNB-75 CNS) [µM] | GI50 (SNB-19 CNS) | GI50 (SNB-75 CNS) | GI50 (HL-60(TB) leukemia) [µM] | GI50 (SR leukemia) [µM]
COC(=O)C1=C(c2ccc(Cl)cc2)C(O)N=C(NN)N1 (stereo not drawn) | > 100 | > 100 | > 100 | > 100 | > 100 | > 100 | > 100 | > 100 | > 100 | – | – | – | – | – | – | – | – | – | – | –
Nc1ccccc1C#C/C=C\C#Cc1ccccc1F | 95.8 | – | 47.6 | 11 | 75.1 | 20.9 | – | – | 35 | 10 | 5.06 µM | 2.1 µM | 18 µM | 7.37 µM | 11.9 µM | – | – | – | – | –
CCSC(=O)C1(C)OC2CCCCC2C1=O (stereo not drawn) | > 100 | > 100 | – | > 100 | > 100 | > 100 | > 100 | > 100 | > 100 | – | – | – | – | – | – | > 100 | – | – | – | –
COc1ccc(C=C2C(=O)NC(=O)NC2=O)cc1OCc1ccccc1 | – | – | – | – | – | – | – | – | – | – | 31.7 µg/mL | 33 µg/mL | 65.7 µg/mL | 47.6 µg/mL | 33 µg/mL | – | 23.3 µg/mL | 22.9 µg/mL | – | –
NS(=O)(=O)c1ccc(NC(=O)c2cccc3c(Nc4ccc(S(N)(=O)=O)cc4)c4ccccc4nc23)cc1 | > 100 | 96.8 | 68.4 | 25.6 | > 100 | > 100 | > 100 | – | > 100 | – | – | – | – | – | – | > 100 | – | – | – | –
COc1cc(/C=C\c2ccc(Cl)cc2)cc(OC)c1OC | > 100 | 2.45 | 10.2 | > 100 | > 67.5 | > 100 | > 100 | 16.7 | > 43.6 | – | – | – | – | – | – | – | – | – | – | –
N#CC(C(=O)CCC(=O)Nc1ccc(Cl)c(Cl)c1)c1ccc(Cl)cc1 (stereo not drawn) | > 100 | > 100 | > 100 | > 100 | > 100 | > 100 | > 100 | – | > 100 | – | – | – | – | – | – | > 100 | – | – | – | –
O=C1NC(SCc2ccc(F)cc2)=N/C1=C/c1cccc(OCc2ccc(Cl)cc2)c1 | > 100 | > 100 | > 100 | > 100 | > 100 | > 100 | > 100 | 76.2 | – | 6.61 | > 100 µM | > 100 µM | > 100 µM | 4.52 µM | – | > 100 | 21.7 µM | 10.1 µM | > 100 | 5.05
O=C(CN1C(=O)S/C(=C\C(Cl)=C\c2ccccc2)C1=O)NCCCn1ccnc1 | 23.2 | – | 6.07 | 4.22 | 3.72 | 7.49 | 13 | – | 3.49 | 3.3 | 2.18 µM | 1.95 µM | 1.85 µM | 2.26 µM | 1.61 µM | 12.9 | 3.14 µM | 1.22 µM | – | –
COC1C(O)C(C)OC(O[C@@H]2C[C@H]3CC[C@@H]4[C@H](CC[C@]5(C)[C@@H](C6=CC(=O)OC6)CC[C@]45O)[C@@]3(C)[C@H](O)C2)C1O (stereo partly drawn) | < 0.0462 | 0.145 | 0.472 | 1.8 | 0.819 | 0.0591 | 1.26 | – | – | – | – | – | – | – | – | 1.01 | – | – | – | –
Clc1ccc(/C=C/c2nc(Cl)c(-c3ccc(Cl)cc3)c(Cl)n2)cc1 | > 100 | > 100 | > 100 | > 100 | > 100 | > 100 | > 100 | – | 43.2 | – | – | – | – | – | – | 64.5 | – | – | – | –
OC1c2ccccc2C2C(O)c3ccccc3C12 (stereo not drawn) | > 100 | > 100 | > 100 | > 100 | > 100 | > 100 | – | – | > 100 | – | – | – | – | – | – | > 100 | – | – | – | –
O=S(=O)(N/N=C/c1ccc(Cl)cc1Cl)c1ccccc1 | > 100 | 56.9 | > 100 | > 100 | > 100 | > 100 | – | > 100 | > 100 | – | – | – | – | – | – | > 100 | – | – | – | –
CCOC(=O)c1cn(CC)c2cc3c(cc2c1=O)SCS3 | > 100 | > 100 | > 100 | > 100 | > 100 | > 100 | > 100 | – | > 100 | – | – | – | – | – | – | > 100 | – | – | – | –
COc1ccc(CN=C(N)N=C(N)N)cc1OC | > 1000 | > 1000 | > 1000 | > 1000 | > 1000 | > 1000 | > 1000 | – | > 1000 | 404 | > 1000 µM | > 1000 µM | 960 µM | 358 µM | > 1000 µM | > 1000 | 482 µM | 192 µM | 706 | –
NS(=O)(=O)c1ccc(N2N=C(c3cccs3)CC2c2ccccc2O)cc1 (stereo not drawn) | 7.06 | – | 2.39 | 1.94 | 8.62 | 4.78 | 11 | > 33.3 | 12.1 | 1.16 | 0.897 µM | 0.809 µM | 2.12 µM | 1.2 µM | 4.01 µM | 1.76 | 1.23 µM | 0.437 µM | – | 1.36
C=C(C)C(=O)O[C@H]1CC2=CC(CC(C)=C[C@H]3OC(=O)C(=C)C13)OC2=O (stereo partly drawn) | > 100 | 11.8 | 43.2 | 47.1 | 31.2 | 51.4 | > 100 | – | – | – | – | – | – | – | – | > 100 | – | – | – | –
O=c1[nH]c2c(c3ccccc13)CCc1ccccc1-2 | > 100 | – | > 100 | > 100 | > 100 | > 100 | > 100 | > 100 | > 100 | – | – | – | – | – | – | > 100 | – | – | – | –
O=CN1N=C(c2ccc(Nc3ccnc4cc(Cl)ccc34)cc2)CC1c1ccc(Cl)cc1 (stereo not drawn) | > 100 | > 100 | 8.5 | > 100 | > 100 | > 100 | > 100 | > 100 | > 100 | 0.992 | 0.407 µM | 0.538 µM | 0.758 µM | 0.978 µM | 1.3 µM | – | 1.92 µM | – | 0.376 | 0.324
O=C(NN1C(=O)CSC12CCC(c1ccccc1)CC2)c1[nH]c2ccc(F)cc2c1-c1ccccc1 (stereo not drawn) | 30.8 | – | 30.5 | 30.7 | 34.3 | 31.8 | > 100 | – | 31 | 15.7 | 14.8 µM | 16 µM | 18.1 µM | 17.6 µM | 17 µM | 36.3 | 29.8 µM | 18 µM | – | –
CNC(=O)c1cncc(/C=C/c2c(Cl)cccc2Cl)c1 | > 25 | > 25 | > 25 | > 25 | > 25 | > 25 | > 25 | – | > 25 | > 25 | 15.1 µM | > 22.4 µM | > 25 µM | > 21 µM | 6.69 µM | > 16.1 | > 22.4 µM | 2.89 µM | > 25 | –
O=c1cc(-c2ccc(O)cc2)oc2cc(O)cc(O)c12 | > 100 | > 100 | – | 82.9 | 59.1 | > 100 | > 100 | > 100 | 56.4 | – | – | – | – | – | – | 43.7 | – | – | – | –
COc1ccc(/C=N\O[Si](C)(C)C(C)(C)C)cc1O[Si](C)(C)C(C)(C)C | 34.9 | 38.1 | 36.2 | 32.7 | – | 35.1 | 33.3 | – | 27.9 | – | – | – | – | – | – | 37.1 | – | – | – | –
CC(=O)O[C@H]1CC[C@@]2(C)C(=C/C(=N\[N+](=O)[O-])[C@H]3C4CCC([C@H](C)CCCC(C)C)[C@@]4(C)CCC32)C1 (stereo partly drawn) | > 100 | > 100 | > 100 | – | > 100 | > 100 | > 100 | – | > 100 | – | – | – | – | – | – | > 100 | – | – | – | –
O=C1NC(c2ccccc2)N=C2Oc3ccccc3C=C12 (stereo not drawn) | > 100 | – | > 23.6 | > 22.8 | > 100 | > 100 | > 100 | > 100 | > 100 | – | – | – | – | – | – | – | – | – | – | –
Nc1ccc(C2=Nc3ccccc3SC(c3ccccc3O)C2)cc1 (stereo not drawn) | > 100 | 62.7 | > 100 | > 100 | > 100 | > 100 | > 100 | – | > 100 | – | – | – | – | – | – | 93.3 | – | – | – | –
NNC(=S)N/N=C(/C(=O)Nc1ccc([N+](=O)[O-])cc1)c1nc2ccc([N+](=O)[O-])cc2[nH]c1=O | > 100 | > 100 | > 100 | > 100 | > 100 | > 100 | – | > 100 | > 100 | – | – | – | – | – | – | > 100 | – | – | – | –
NC(=O)N/N=C(\CCC(=O)N(Cc1ccccc1)Cc1ccccc1)CC(=O)c1ccc(F)cc1 | > 100 | > 100 | > 100 | > 100 | > 100 | > 100 | > 100 | > 100 | > 100 | – | – | – | – | – | – | – | – | – | – | –
O=C1/C(=C\c2ccccc2)c2ccccc2N1/N=C\c1ccccc1 | > 100 | – | > 100 | > 100 | > 100 | > 100 | > 100 | – | > 100 | – | – | – | – | – | – | > 100 | – | – | – | –
O=C1NN=CN2C(=O)CCC12 (stereo not drawn) | > 100 | > 100 | – | > 100 | > 100 | > 100 | > 100 | > 100 | > 100 | – | – | – | – | – | – | > 100 | – | – | – | –
